Measurements published in patent US5385885A, “Inhibition of smooth muscle cell proliferation by antistasin and tick anticoagulant peptide” (priority 1991, dated 1995).
“Also recorded” adds a separate entry of the source.

Legend:
[1] = target: T1, trypsin (Bos taurus, UniProt P00760); conditions: Waxman et al.; cited from earlier work
T1 construct: gene PRSS1
T1 sequence (P00760 24-246): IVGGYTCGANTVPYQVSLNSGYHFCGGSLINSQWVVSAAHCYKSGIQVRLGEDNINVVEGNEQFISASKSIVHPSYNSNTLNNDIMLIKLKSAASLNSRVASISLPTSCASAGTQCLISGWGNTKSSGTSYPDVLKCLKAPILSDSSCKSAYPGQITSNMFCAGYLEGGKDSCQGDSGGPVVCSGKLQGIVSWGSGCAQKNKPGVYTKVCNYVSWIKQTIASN

[2] = tested on: kallikrein; conditions: Waxman et al.; cited from earlier work
[3] = tested on: smooth muscle cells; test: Effect of factor Xa inhibitors on human protein S and bovine factor X induced smooth muscle cell mitogenesis; type: cell-based, rat; conditions: FIG. 3
Description: Primary smooth muscle cell cultures were prepared from the thoracic and abdominal aorta of 2-3 month old Wistar rats essentially using the procedure of Reilly, C. F. (1990) J. Cell Physiol. 142,342 (1990). After removing as much fat and adherent adventitia as possible with scissors and forceps, the tissue was finely minced, enzymatically dissociated with successive 37° C. incubations in HBSS containing collagenase (Sigma, 0.5 mg/ml for 15 min.), then elastase (Sigma, 0.125 mg/ml for 30 min.) and again collagenase (60 min.). […] Cells were grown in Dulbecco's Minimal Essential Medium (DMEM) containing 10% fetal bovine serum (FBS) with antibiotics. […]
(§1) The prepared rat smooth muscle cells were seeded in Falcon 24 multiwell plates (10^5 cells/well) and cultured at 37° C., in a 5% CO2 atmosphere in 1 ml DMEM containing 10% FBS. […] The cells were washed twice with cold phosphate buffered saline (PBS), treated twice with 5% trichloroacetic acid (TCA) for 5 min., dissolved with 0.25N NaOH (0.4 ml) incubated at 37° C. for 60 min., mixed with 5 ml Ecolume (ICN Biomedicals, Costa Mesa, Calif.), and their radioactivity determined in a scintillation counter. […] Smooth muscle cell mitogenic activity produced by exogenous agents is expressed as % relative mitogenic activity which is defined as: [formula] […]

[4] = target: T2, Factor VIIa (Homo sapiens, UniProt P08709); conditions: Waxman et al.; cited from earlier work
T2 sequence (P08709 213-466 limits assumed): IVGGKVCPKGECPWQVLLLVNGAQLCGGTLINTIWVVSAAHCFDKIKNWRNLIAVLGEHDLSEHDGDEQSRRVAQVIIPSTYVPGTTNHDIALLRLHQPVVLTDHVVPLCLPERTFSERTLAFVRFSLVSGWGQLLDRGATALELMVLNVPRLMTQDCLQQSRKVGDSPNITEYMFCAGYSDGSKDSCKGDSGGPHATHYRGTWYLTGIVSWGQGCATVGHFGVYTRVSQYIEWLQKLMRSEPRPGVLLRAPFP
T2 sequence (P08709 61-212 partner limits assumed): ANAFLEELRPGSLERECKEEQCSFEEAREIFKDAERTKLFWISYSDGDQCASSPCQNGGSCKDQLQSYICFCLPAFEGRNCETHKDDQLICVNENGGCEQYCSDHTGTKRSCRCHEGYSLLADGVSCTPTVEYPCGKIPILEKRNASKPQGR

[5] = tested on: smooth muscle cells; test: Effect of antistasin and tick anticoagulant peptide on factor Xa induced mitogenesis of smooth muscle cells; type: cell-based, rat; conditions: FIG. 2
Description: Primary smooth muscle cell cultures were prepared from the thoracic and abdominal aorta of 2-3 month old Wistar rats essentially using the procedure of Reilly, C. F. (1990) J. Cell Physiol. 142,342 (1990). After removing as much fat and adherent adventitia as possible with scissors and forceps, the tissue was finely minced, enzymatically dissociated with successive 37° C. incubations in HBSS containing collagenase (Sigma, 0.5 mg/ml for 15 min.), then elastase (Sigma, 0.125 mg/ml for 30 min.) and again collagenase (60 min.). […] Cells were grown in Dulbecco's Minimal Essential Medium (DMEM) containing 10% fetal bovine serum (FBS) with antibiotics. […] Using a monoclonal antibody to alpha actin (Sigma Chemical Company, St. Louis, Mo.), about 60-80% (preparation dependent) of these confluent cells stained positive for this smooth muscle cell marker. After 10 days in culture, the cells were dissociated with trypsinethylene diamine tetraacetate (EDTA), split 1:10 and subcultured in the above medium. At confluence the cells were transferred to DMEM containing 0.1 % FBS for a 24 hour period before using them for assay. […]
as §1
The effects of antistasin and tick anticoagulant peptide on factor Xa induced mitogenesis of smooth muscle cells were tested using the method shown in Example 4. […] At the end of the 24 hour incubation, ^3 H-thymidine incorporation into DNA was monitored and smooth muscle cell mitogenic activity was assessed as described in Example 4.

[6] = target: thrombin (Homo sapiens, UniProt P00734); conditions: Waxman et al.; cited from earlier work
[7] = target: blood coagulation factor Xa (Homo sapiens, UniProt P00742); conditions: Waxman et al.; cited from earlier work
[8] = target: chymotrypsin (Bos taurus, UniProt P00766); conditions: Waxman et al.; cited from earlier work
[9] = tested on: human venous endothelial cells; test: Release of mitogens from endothelial cells stimulated with PDGF; conditioned media tested for mitogenic activity on 3T3 cells; type: cell-based; conditions: PDGF 2 ng/ml, ATS 5 nM, 16 h
Description: Confluent primary cultures or subcultures (passages 1 and 2) of human venous endothelial cells were cultured in serum-free Dulbecco's Minimal Essential Medium (DMEM)+0.1% bovine serum albumin (BSA) in the presence of platelet-derived growth factor (PDGF) (2 ng/ml), antistasin (ATS) (5.0-10 nM), or both. Control cultures were untreated or received 2 ng/ml PDGF. After 16 hours incubation at 37° C., conditioned media (CM) from the test and control cell cultures were collected and tested for mitogenic activity (MIT) using confluent NIH 3T3 cells (CCL 163, American Type Culture Collection, Rockville, Md.).
(§2) Primary cultures of EC derived from umbilical cord veins were prepared and grown according to a protocol provided to by Dr. Gwendolyn Stewart (Temple University Thrombosis Center, Phila., Pa.). After washing the lumen of the vein twice with DMEM, EC were dissociated with a solution containing 0.05% trypsin and 0.1% collagenase. Thirty minutes later, the venous content and the perfused DMEM (35 ml) was collected into a fifty ml centrifuge tube containing 3.5 ml of bovine serum and the mixture spun at 900 rpm for 10 minutes. The supernate was discarded and the cell pellet resuspended in 3.0 ml DMEM containing 20% fetal bovine serum (FBS) (heat inactivated at 56° C. for 30 minutes), 90 μg heparin per ml, 5 μg fibronectin per ml, and 60 μg endothelial growth factor per ml (cDMEM), and seeded into 35 mm tissue culture dishes. After 24 hours of incubation at 37 °C, 5% CO2, the culture was washed 3-4 times with DMEM and incubated 2-4 days until the cells were confluent. The monolayers were washed with phosphate buffered saline (PBS) and cultured in DMEM with 0.1% BSA in the presence and absence of 2 ng/ml PDGF, 5 nM antistasin, or a mixture of both. As positive and negative controls, separated monolayers were incubated with the medium plus 2 ng/ml PDGF or with the medium alone. […] The lysate was transferred to vials with scintillation fluid and radioactivity monitored in a beta radiation counter. […]

[10] = tested on: human venous endothelial cells; test: Release of mitogens from endothelial cells stimulated with factor Xa; conditioned media tested for mitogenic activity on 3T3 cells; type: cell-based; conditions: 1 unit = activity induced by 2 ng/ml PDGF, FXa 1 nM, ATS 5 nM, PDGF 2 ng/ml, 16 h
Description: Confluent primary cultures or subcultures (passages 1 and 2) of human venous endothelial cells (EC) were cultured in serum-free Dulbecco's Minimal Essential Medium (DMEM)+0.1% bovine serum albumin (BSA) in the presence of human or bovine factor Xa(1 nM) (Sigma Chemical Co., St. Louis, Mo.), antistasin (ATS) (0.5-5.0 nM), or both. Control cultures were untreated or received 2 ng/ml platelet-derived growth factor (PDGF) (Sigma Chemical Co., St. Louis, Mo.). After 16 hours incubation at 37° C., the conditioned media (CM) from the test and control cell cultures were collected and tested for mitogenic activity (MIT) using confluent NIH 3T3 cells (CCL 163, American Type Culture Collection, Rockville, Md.).
as §2, with “1 nM factor Xa,” for “2 ng/ml PDGF,”, “alone. After 16 hours of incubation at 37° C., conditioned media (CM) were collected, centrifuged at 4000×g for 10 minutes, and the supernate was collected and stored at 4° C. until use. The mitogenic activity of the CM was tested by measuring the incorporation of [^3 H] thymidine into cultures of Balb 3T3 cells. For this purpose, wells were seeded with 2×10^4 3T3 cells suspended in 1 ml DMEM with 10% FBS. Once confluent (5-7 days of culture), CM were added and cells incubated for 18 hours at 37° C. after which cultures were washed with warm DMEM, tritiated thymidine added (1 μCi/ml) and cells incubated for 4 hours at 37° C.” for “alone.”

Chain of blood coagulation factor Xa (P00742 235-488 limits assumed): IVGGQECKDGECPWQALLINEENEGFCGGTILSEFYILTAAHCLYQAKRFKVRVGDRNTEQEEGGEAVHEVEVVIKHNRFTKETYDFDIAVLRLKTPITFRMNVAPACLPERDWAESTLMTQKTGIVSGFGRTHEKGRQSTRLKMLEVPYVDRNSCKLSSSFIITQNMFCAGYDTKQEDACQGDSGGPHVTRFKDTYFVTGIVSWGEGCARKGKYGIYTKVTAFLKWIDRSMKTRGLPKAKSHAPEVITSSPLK
Chain of blood coagulation factor Xa (P00742 41-179 partner limits assumed): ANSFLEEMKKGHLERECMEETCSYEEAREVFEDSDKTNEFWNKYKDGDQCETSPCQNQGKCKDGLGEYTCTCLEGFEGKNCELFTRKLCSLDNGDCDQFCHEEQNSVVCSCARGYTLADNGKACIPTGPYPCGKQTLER

For “tick anticoagulant peptide (YNRLCIKPRDWIDECDSNEGGERAYFRNGKGGCDSFWICPEDHTGADYYSSYRDCFNACI; UniProt P17726 1-60, looked up) [TAP, 60-amino acid peptide isolated from extracts of the soft tick Ornithodoros moubata]”, the Effect on trypsin [1] is listed as “no effect”, the Effect on kallikrein [2] is listed as “no effect” and the “Inhibition of relative mitogenic activity of bovine factor X” value ([3]; 10 nM bovine factor X with 100 nM TAP) is listed as “not significantly inhibited”. For the same substance, the “Inhibition of relative mitogenic activity of protein S” value ([3]; protein S with 250 nM TAP) was “abolished”, the “Effect on Factor VIIa” value [4] was “no effect” and the “Relative mitogenic activity above control” value ([5]; 10 nM fXa and 3-25 nM TAP) was “about 25%”. For the same substance, the “Relative mitogenic activity above control” value ([5]; 10 nM fXa and 50-62 nM TAP) was “about 9%”, the “Relative mitogenic activity above control” value ([5]; 10 nM fXa with 100-250 nM TAP) was “near zero” and the Effect on thrombin [6] was “no effect”. The “Inhibition of blood factor Xa” value [7] was “highly specific inhibitor; also recorded: potent inhibitor” and the Effect on chymotrypsin [8] was “no effect”.

For PDGF [reference compound], the “Mitogenic units of EC conditioned media” value ([9]; EXP 1) was 1.00 mitogenic units, the “Mitogenic units of EC conditioned media” value ([9]; EXP 2) was 1.00 mitogenic units and the “Mitogenic units of EC conditioned media” value ([9]; EXP 3) was 1.00 mitogenic units. For the same substance, the “Mitogenic units of EC conditioned media” value ([10]; EXP 1) was 1.00 mitogenic units, the “Mitogenic units of EC conditioned media” value ([10]; EXP 2) was 1.00 mitogenic units and the “Mitogenic units of EC conditioned media” value ([10]; EXP 3) was 1.00 mitogenic units. For the same substance, the “Mitogenic units of EC conditioned media” value ([10]; EXP 4) was 1.00 mitogenic units.
